We go through one molecule from US20130085161A1, “PIPERIDINYL SUBSTITUTED 1,3-DIHYDRO-BENZOIMIDAZOL-2-YLIDENEAMINE DERIVATIVES” (NOVARTIS AG, priority 2010, published 2013).

The target in test [1] is T1, BaF3-Tel-IGF1-R (Homo sapiens, UniProt P08069).
T1 construct: the kinase domain of IGF-1R (aa 976-1367) linked by a Ser-Arg-linker; expressed in transfected cells; host or cells: BaF3 murine proB-cell lymphoma cells, stably transduced
The experiment in a line: BaF3 cell viability assay (resazurin), 384-well format. The test is classed as cell-based. The settings on record: 384-well plate format; 48 h incubation; resazurin dye reduction; cell proliferation/viability. The source says: (§1) BaF3-Tel-IGF1-R and BaF3-InsR are BaF3 murine proB-cell lymphoma cell derivatives [the BaF3 cell line (also termed Ba/F3) is available from the German Collection of Microorganisms and Cell Cultures (DSMZ), Braunschweig, Germany] that have been rendered IL-3-independent by stable transduction with kinase-activating fusions between human TEL (aa 1-452) and the kinase domain of IGF-1R (aa 976-1367) linked by a Ser-Arg-linker (Boulay et al, Cancer Res 68, 3743-3751, 2008), and a fusion between human TEL (aa 1-337) and the kinase domain (aa 1015-1382) of the Insulin receptor (Melnick J S et al, Proc Natl Acad Sci USA 103, 3153-3158, 2006), respectively. Cells are cultured in RPMI-1640 (Animed #1-14F01-1) supplemented with 2% L-glutamine (Animed #5-10K50-H) and 10% fetal calf serum (FCS, Animed #2-01F16-I). Wild-type, untransfected BaF3 cells are maintained in above medium plus 10 U/ml IL-3 (mouse Interleukin-3, Roche #1380745 or Invitrogen # PMC0035) and are used to identify non-selective, generally growth-inhibitory compounds. Cells (1.5×10^4 cells per well) are seeded in 190 μl fresh medium into 96-well plates. 10 μl 20× compound solutions are added. As internal control, the kinase inhibitor PKC412 is routinely used. Control cells treated with DMSO (0.1% final concentration) serve as growth reference (set as 100% growth). In addition, a plate blank value is routinely determined in a well containing only […] of medium and no cells. IC50 determinations are performed based on eight 3-fold serial dilutions of the test compound, starting at 10 μM. Following incubation of the cells for 48 h at 37° C. and 5% CO2, the effect of inhibitors on cell viability is assessed by the resazurin sodium salt dye reduction assay (commercially known as AlamarBlue assay) basically as previously described (O'Brien J. et al., Eur. J. Biochem. 267: 5421-5426, 2000). Briefly, 20 μl dye solution is added per well and the plates incubated for 6 h at 37° C. and 5% CO2. Thereafter, fluorescence is measured using a Saphirell 96-well plate reader (TECAN, Männedorf, Switzerland) with the following settings: Excitation 544 nm and Emission 590 nm. For data analysis, the plate blank value is subtracted from all data points. The effect of a particular test compound concentration on cell proliferation and viability is expressed as percentage of the blank-corrected reading obtained for cells treated with vehicle only, which is set as 100%. IC50 values can be determined using XLfit (V4.2), applying standard four parameter logistic model #205 (IDBS, Guilford, UK) or other common curve-fitting software.
To achieve a higher throughput, the cell viability assay can also be performed in a 384-well format. Briefly, 4′500 freshly diluted cells are seeded in 54 μl/well into 384-well plates using a liquid dispenser. 6 μl 10× compound solution is added to the cell plate. As internal control, the kinase inhibitor PKC412 is routinely used. Control cells treated with DMSO (0.1% final concentration) serve as growth reference (set as 100% growth). In addition, a plate blank value is routinely determined in a well containing only 60 μl of medium and no cells. Dose-response effects are determined by 3-fold serial compound dilutions, starting at 10 μM. Following incubation of the cells for 48 h at 37° C. and 5% CO2, the effect of compounds on cell proliferation/viability is assessed by addition of 6 μl resazurin sodium salt dye solution per well. Following incubation for an additional 6 hrs at 37° C. and 5% CO2, fluorescence is measured using an Infiniti M1000 microplate reader (TECAN, Männedorf, Switzerland) with excitation and emission wavelengths set at 544 and 590 nm, respectively. For data analysis, the plate blank value is subtracted from all data points. IC50 values can be determined by four parameter logistic fitting as described above.
On the technique in general: Resazurin is reduced to fluorescent resorufin, in cell work by metabolically active cells.

Test [2] addresses T1, BaF3-Tel-IGF1-R. The test can be described thus: BaF3 cell viability assay (resazurin/AlamarBlue), 96-well format. The test is classed as cell-based. The settings on record: 96-well plate format; 48 h incubation; resazurin dye reduction; cell proliferation/viability.
Excerpt: as §1, with “10 μl 20× compound solutions are added. As internal control, the kinase inhibitor PKC412 is routinely used. Control cells treated with DMSO (0.1% final concentration) serve as growth reference (set as 100% growth).” left out, “IC50 determinations are performed based on eight 3-fold serial dilutions of the test compound, starting at 10 μM.” left out, “Briefly, 20 μl dye solution is added per well and the plates incubated for 6 h at 37° C. and 5% CO2.” left out, “For data analysis, the plate blank value is subtracted from all data points.” left out

T1 sequence (P08069 976-1367): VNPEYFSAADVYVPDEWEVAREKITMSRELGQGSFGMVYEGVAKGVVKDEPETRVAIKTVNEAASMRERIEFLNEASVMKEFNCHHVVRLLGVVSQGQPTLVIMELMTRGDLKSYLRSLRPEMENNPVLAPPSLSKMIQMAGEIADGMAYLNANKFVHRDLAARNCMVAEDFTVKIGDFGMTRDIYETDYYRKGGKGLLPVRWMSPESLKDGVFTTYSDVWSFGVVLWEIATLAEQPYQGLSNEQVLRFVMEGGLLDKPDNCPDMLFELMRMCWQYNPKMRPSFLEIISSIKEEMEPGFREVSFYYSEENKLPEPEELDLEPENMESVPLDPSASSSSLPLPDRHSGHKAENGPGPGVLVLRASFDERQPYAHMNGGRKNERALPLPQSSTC

For the molecule `CC(=O)Nc1ccccc1N1CCC(n2c(=N)n(Cc3ccccc3Cl)c3ccccc32)CC1` [Example 56.6, N-(2-{4-[3-(2-Chloro-benzyl)-2-imino-2,3-dihydro-benzoimidazol-1-yl]-piperidin-1-yl}-phenyl)-acetamide], the IC50 against BaF3-Tel-IGF1-R [1] turned out to be 148 nM; at BaF3-Tel-IGF1-R [2], 93 nM.

Usually IC50 stands for the concentration needed to halve the response being measured.
